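Cells were grown in 96-well plates and exposed to each compound for 48 hours at five concentrations; endpoints were interpolated linearly between bracketing concentrations, or set to the highest concentration if not reached. TGI marks complete inhibition of growth.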 Where a SMILES comes first, the peptide text is derived from it. The star is where a group is joined. OSu = O=C1CCC(=O)N1O*
Tests used:
Test in all cases: NCI anticancer screen, dose series, 48 h
[1] = system: BT-549 breast
[2] = system: UACC-257 melanoma
[3] = system: MALME-3M melanoma
[4] = system: SN12C renal
[5] = system: HT29 colon
[6] = system: SK-MEL-28 melanoma
[7] = system: SNB-19 CNS
[8] = system: RPMI-8226 leukemia
[9] = system: PC-3 prostate
[10] = system: OVCAR-8 ovarian

| SMILES | TGI [1] [µM] | TGI [2] [µM] | TGI [3] [µM] | TGI [4] [µM] | TGI [5] [µM] | TGI [6] [µM] | TGI [7] [µM] | TGI [8] [µM] | TGI [9] [µM] | TGI [10] [µM] |
| --- | --- | --- | --- | --- | --- | --- | --- | --- | --- | --- |
| NCCCCC(NC(=O)C(N)Cc1ccc(O)cc1)C(=O)NC(Cc1ccc(O)cc1)C(=O)NC(CCCCN)C(=O)ON1C(=O)CCC1=O (stereo not given) (H-YKYK-OSu; configuration not given here) | > 100 | > 100 | > 100 | > 100 | > 100 | > 100 | > 100 | > 100 | > 100 | > 100 |
| CC12CCC(CC1(Cl)Cl)C2 (stereo not given) | > 100 | > 100 | > 100 | > 100 | > 100 | > 100 | > 100 | > 100 | > 100 | > 100 |
| C/C(=N\NC(N)=S)c1sc(-n2nc(-c3ccccc3)cc2-c2ccccc2)nc1C | > 100 | > 100 | > 100 | > 100 | > 100 | > 100 | > 100 | 61.2 | > 100 | > 100 |
| COc1ccc(/C=C/C(=O)Oc2ccccc2OC)cc1 | > 100 | > 100 | > 100 | 58.2 | > 59 | > 100 | > 100 | 5.22 | > 100 | > 71.9 |
| Cc1ccc(/S(Cc2ccccc2)=N\S(=O)(=O)c2ccc(C)cc2)cc1 (stereo not given) | > 100 | > 100 | > 100 | > 100 | > 100 | > 100 | > 100 | > 100 | > 100 | > 100 |
| COc1ccc2c(c1OC)C(=O)O[C@@H]2[C@H]1c2c(cc3c(c2OC)OCO3)CCN1C | > 100 | > 100 | 79.3 | > 100 | > 100 | > 100 | > 100 | > 100 | > 100 | > 100 |
| COC(=O)CNC(=O)CCC(C)[C@H]1CCC2C3C(C[C@H](OC(C)=O)[C@@]21C)[C@@]1(C)CCC2(C[C@H]1C[C@H]3OC(C)=O)OOC1(CCCCC1)OO2 (stereo not given in full) | 3.9 | 20.1 | 6.22 | 3.17 | 7.44 | 22.1 | 17.8 | 3.91 | 6.29 | 4.16 |
| C[n+]1cn(-c2nc3ccccc3nc2[N-]S(=O)(=O)c2ccccc2)c2ccccc21 | > 100 | > 100 | > 100 | > 100 | > 100 | > 100 | > 100 | > 100 | > 100 | > 100 |
| C1=NCCOCCN=Cc2ccc(cc2)OCc2cccc(n2)COc2ccc1cc2 | > 100 | > 100 | > 100 | > 100 | > 100 | > 100 | > 100 | > 100 | > 100 | > 100 |
| CC(C)=C[C@@H]1O[C@H](O)[C@@H]([C@H]2CC[C@@]3(C)[C@@H]4CC[C@H]5C(C)(C)C(=O)CC[C@@]56C[C@@]46CC[C@]23C)[C@@H]1O | 39.8 | 31.6 | 37.7 | 38.2 | 24.1 | 42.5 | 39.1 | 12.7 | 29.3 | 30.4 |
| [N-]=[N+]=Nc1ccc2c(c1)Sc1ccccc1N2CCCCN1CCN(C(=O)CCNC(=O)Cc2ccc(C(=O)c3ccccc3)cc2)CC1 | 10.6 | 9.96 | 10.7 | > 33 | 4.67 | 9.89 | > 56.4 | 4.87 | > 21.3 | > 100 |
| O=c1c2c3c(sc2nc2n1N=CN(c1ccc(F)cc1)C2)CCCC3 | > 100 | > 100 | > 100 | > 100 | > 100 | > 100 | > 100 | > 100 | > 100 | > 100 |
| CCC(=O)Nc1ccc(NCC(=O)Nc2ccc(OC)cc2)cc1 | 51.6 | 64.2 | 49.5 | 37.5 | > 100 | > 100 | 31.3 | 90.5 | 89.9 | 42.8 |
| C=CC[C@]1(C2=NC(C)(C)CO2)c2ccccc2-c2ccccc2[C@H]1C(C)=O | 37.1 | 24 | 21 | 30.8 | 17.3 | > 54.5 | 34.7 | 33.5 | 27.7 | > 52.8 |

From PubChem BioAssay (NCI)
